What follows are molecules tested against T1, cathepsin K (Homo sapiens, UniProt P43235) (assay: Cathepsin K inhibitory activity (fluorescent substrate Z-Leu-Arg-MCA)). Settings: enzyme expressed in HEK293T; 15 min preincubation, 30 min reaction at room temperature, pH 5.5; read-out: Activity Intensity (cathepsin K inhibitory activity, pIC50 class) (converted).
T1 construct: the active enzyme was obtained as the enzyme fraction by using detergent containing lysis buffer; made in house; host or cells: HEK293T (GenHunter Corporation), transient expression; detergent lysate used as enzyme fraction
T1 sequence (P43235 115-329): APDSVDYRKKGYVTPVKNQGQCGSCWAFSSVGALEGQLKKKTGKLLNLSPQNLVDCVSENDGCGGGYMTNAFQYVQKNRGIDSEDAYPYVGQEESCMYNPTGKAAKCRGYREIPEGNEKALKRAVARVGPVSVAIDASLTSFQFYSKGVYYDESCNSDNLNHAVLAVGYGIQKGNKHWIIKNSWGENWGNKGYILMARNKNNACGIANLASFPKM
Format: biochemical
Description: Cathepsin K inhibitory activities of the compounds synthesized according to the methods of the above examples were measured.
Cathepsin K used for evaluation of inhibitory activity was transiently expressed in an animal cell HEK293T (made by GenHunter Corporation) and the active enzyme was obtained as the enzyme fraction by using detergent containing lysis buffer.
The enzyme solution A was prepared at 2.1 times final concentration by diluting the enzyme fraction with assay buffer (50 mM sodium acetate, 50 mM sodium chloride, 2 mM DTT, pH 5.5). The test compound solutions B were prepared at 50 times final target concentrations by dimethylsulfoxide (DMSO). As a substrate solution C, a solution of a fluorescent substrate, benzyloxycarbonyl-L-leucyl-L-arginyl-4-methyl-coumaryl-7-amide (Z-Leu-Arg-MCA (Peptide Institute Inc.), was prepared at 10 μM by an assay buffer.
To the enzyme solution A (38.4 μL) were added the test compound solutions B (1.6 μL) and mixed individually. The mixtures were incubated at room temperature for 15 minutes. To the incubated solutions were added the substrate solution C (40 μL) and the mixtures were reacted at room temperature for 30 minutes respectively. The fluorescence intensities of the enzyme reaction solutions were measured at excitation wavelength of 355 nm and measurement wavelength of 460 nm and the enzyme activities were calculated from these fluorescence intensities caused by 7-amino-4-methylcoumarine released. The enzyme activity with using DMSO instead of the test compound solution B was taken as 100% and the inhibitory rates at each concentration of the test compound were calculated. The […] response curve was fitted to the plots. The 50% inhibitory concentration against cathepsin K was calculated from this curve.
Note that the symbols (+, ++, and +++) in this table represent the inhibitory activity values as below. Here, pIC50 is the value representing a negative logarithm of IC50, (−log10(IC50)). IC50 is a 50% inhibitory concentration.

| IC50 | Structure (SMILES) |
| --- | --- |
| 3.16 to 31.6 nM | CC[C@@H](CNc1ccc(OCCS(C)(=O)=O)cc1OC)NC(=O)[C@H](CC(C)C)N[C@@H](c1ccc(S(C)(=O)=O)cc1)C(F)(F)F [Compound 40] |
| ≤ 3.16 nM | CC[C@@H](CNc1ccc(OCCS(C)(=O)=O)cc1OC)NC(=O)[C@H](CC(C)C)N[C@@H](c1ccc(=O)[nH]c1)C(F)(F)F [Compound 41] |
| ≤ 3.16 nM | CC[C@@H](CNc1ccc(OCCO)cc1OC)NC(=O)[C@H](CC(C)(C)F)N[C@@H](c1ccccc1)C(F)(F)F [Compound 42] |
| 3.16 to 31.6 nM | CC[C@@H](CNc1ccc(OC)cc1OC)NC(=O)[C@H](CC(C)C)N[C@@H](c1ccc(=O)n(C)c1)C(F)(F)F [Compound 44] |
| 31.6 to 10000 nM | CC[C@@H](CNc1ccc(-c2ccccc2)cc1)NC(=O)[C@H](CC(C)C)N[C@@H](c1ccccc1)C(F)(F)F [Compound 45] |
| 31.6 to 10000 nM | CC[C@@H](CNc1ccc(-n2cccn2)cc1)NC(=O)[C@H](CC(C)C)N[C@@H](c1ccccc1)C(F)(F)F [Compound 47] |
| 31.6 to 10000 nM | CC[C@@H](CNc1ccc(-n2cccn2)cc1)NC(=O)[C@H](CC(C)C)N[C@@H](c1ccc(OC)nc1)C(F)(F)F [Compound 48] |
| ≤ 3.16 nM | CCOC(=O)C1CCN(c2ccc(NC[C@H](CC)NC(=O)[C@H](CC(C)C)N[C@@H](c3ccccc3)C(F)(F)F)cc2)CC1 [Compound 49] |
| ≤ 3.16 nM | CCOC(=O)C1CCN(c2ccc(NC[C@H](CC)NC(=O)[C@H](CC(C)C)N[C@@H](c3ccc(OC)nc3)C(F)(F)F)cc2)CC1 [Compound 50] |
| ≤ 3.16 nM | CC[C@@H](CNc1ccc(N2C[C@@H](C)O[C@@H](C)C2)cc1)NC(=O)[C@H](CC(C)C)N[C@@H](c1ccccc1)C(F)(F)F [Compound 51] |
| ≤ 3.16 nM | CC[C@@H](CNc1ccc(N2C[C@@H](C)O[C@@H](C)C2)cc1)NC(=O)[C@H](CC(C)C)N[C@@H](c1ccc(OC)nc1)C(F)(F)F [Compound 52] |
| 3.16 to 31.6 nM | CC[C@@H](CNc1ccc(N2CCCC2=O)cc1)NC(=O)[C@H](CC(C)C)N[C@@H](c1ccccc1)C(F)(F)F [Compound 53] |
| 3.16 to 31.6 nM | CC[C@@H](CNc1ccc(N2CCCC2=O)cc1)NC(=O)[C@H](CC(C)C)N[C@@H](c1ccc(OC)nc1)C(F)(F)F [Compound 54] |
| ≤ 3.16 nM | CCOC(=O)C1CCN(c2ccc(NC[C@H](CC)NC(=O)[C@H](CC(C)(C)F)N[C@@H](c3ccccc3)C(F)(F)F)cc2)CC1 [Compound 55] |
| ≤ 3.16 nM | CC[C@@H](CNc1ccc(N2CCO[C@@H](C(=O)OC)C2)cc1)NC(=O)[C@H](CC(C)C)N[C@@H](c1ccccc1)C(F)(F)F [Compound 56] |
| 31.6 to 10000 nM | CC[C@@H](CNc1ccc(OC)cc1OC)NC(=O)[C@H](Cc1ccccc1)N[C@@H](c1ccccc1)C(F)(F)F [Compound 57] |
| 31.6 to 10000 nM | CC[C@@H](CNc1ccc(N2CCOCC2)cc1)NC(=O)[C@H](Cc1ccccc1)N[C@@H](c1ccccc1)C(F)(F)F [Compound 58] |
| ≤ 3.16 nM | CC[C@@H](CNc1ccc(OC)cc1OC)NC(=O)[C@H](CC(C)(C)C)N[C@@H](c1ccccc1)C(F)(F)F [Compound 59] |
| 3.16 to 31.6 nM | CC[C@@H](CNc1ccc(OC)cc1OC)NC(=O)[C@@H](N[C@@H](c1ccccc1)C(F)(F)F)[C@@H](C)CC [Compound 60] |
| 31.6 to 10000 nM | CC[C@@H](CNc1ccc(OC)cc1OC)NC(=O)[C@@H](N[C@@H](c1ccccc1)C(F)(F)F)C1CCCCC1 [Compound 61] |
| 31.6 to 10000 nM | CC[C@@H](CNc1ccc(OC)cc1OC)NC(=O)[C@H](Cc1ccccc1)N[C@@H](c1cccs1)C(F)(F)F [Compound 62] |
| 31.6 to 10000 nM | COc1ccc(NC[C@H](CC(C)C)NC(=O)[C@H](Cc2ccccc2)N[C@@H](c2ccccc2)C(F)(F)F)c(OC)c1 [Compound 63] |

| IC50 | Structure (SMILES) |
| --- | --- |
| ≤ 3.16 nM | COc1ccc(NC[C@H](CC(C)C)NC(=O)[C@H](CC(C)C)N[C@@H](c2ccccc2)C(F)(F)F)c(OC)c1 [Compound 64] |
| ≤ 3.16 nM | COc1ccc([C@H](N[C@@H](CC(C)C)C(=O)N[C@H](CNc2ccc(OC)cc2OC)CC(C)C)C(F)(F)F)cc1 [Compound 65] |
| 3.16 to 31.6 nM | COc1ccc(NC[C@H](CCSC)NC(=O)[C@H](CC(C)C)N[C@@H](c2ccccc2)C(F)(F)F)c(OC)c1 [Compound 66] |
| 3.16 to 31.6 nM | COc1ccc([C@H](N[C@@H](CC(C)C)C(=O)N[C@@H](CCSC)CNc2ccc(OC)cc2OC)C(F)(F)F)cc1 [Compound 67] |
| ≤ 3.16 nM | CC(C)C[C@H](N[C@@H](c1ccccc1)C(F)(F)F)C(=O)N[C@@H](CCC(=O)OCc1ccccc1)CNc1ccc(N2CCOCC2)cc1 [Compound 68] |
| ≤ 3.16 nM | CC(C)C[C@H](N[C@@H](c1ccccc1)C(F)(F)F)C(=O)N[C@H](CNc1ccc(N2CCOCC2)cc1)CC(=O)OCc1ccccc1 [Compound 69] |
| ≤ 3.16 nM | COc1ccc(NC[C@H](C)NC(=O)[C@H](CC(C)C)N[C@@H](c2ccccc2)C(F)(F)F)c(OC)c1 [Compound 70] |
| ≤ 3.16 nM | CC(C)C[C@H](N[C@@H](c1ccccc1)C(F)(F)F)C(=O)N[C@@H](C)CNc1ccc(N2CCOCC2)cc1 [Compound 71] |
| ≤ 3.16 nM | CC(C)C[C@H](N[C@@H](c1ccc(=O)[nH]c1)C(F)(F)F)C(=O)N[C@@H](C)CNc1ccc(N2CCOCC2)cc1 [Compound 72] |
| ≤ 3.16 nM | CC(C)C[C@H](N[C@@H](c1ccc(S(C)(=O)=O)cc1)C(F)(F)F)C(=O)N[C@@H](C)CNc1ccc(N2CCOCC2)cc1 [Compound 73] |
| ≤ 3.16 nM | CC(C)C[C@H](N[C@@H](c1cccnc1)C(F)(F)F)C(=O)N[C@@H](C)CNc1ccc(N2CCOCC2)cc1 [Compound 74] |
| ≤ 3.16 nM | COc1ccc([C@H](N[C@@H](CC(C)C)C(=O)N[C@@H](C)CNc2ccc(N3CCOCC3)cc2)C(F)(F)F)cn1 [Compound 75] |
| 3.16 to 31.6 nM | COc1ccc(NC[C@H](C)NC(=O)[C@H](CC(C)C)N[C@@H](c2ccc(=O)[nH]c2)C(F)(F)F)c(OC)c1 [Compound 76] |
| 3.16 to 31.6 nM | COc1ccc(NC[C@H](C)NC(=O)[C@H](CC(C)C)N[C@@H](c2ccc(S(C)(=O)=O)cc2)C(F)(F)F)c(OC)c1 [Compound 77] |
| 3.16 to 31.6 nM | COc1ccc(NC[C@H](C)NC(=O)[C@H](CC(C)C)N[C@@H](c2cccnc2)C(F)(F)F)c(OC)c1 [Compound 78] |
| 3.16 to 31.6 nM | COc1ccc(NC[C@H](C)NC(=O)[C@H](CC(C)C)N[C@@H](c2ccc(OC)nc2)C(F)(F)F)c(OC)c1 [Compound 79] |
| 3.16 to 31.6 nM | COc1ccc(NC[C@H](CCS(C)(=O)=O)NC(=O)[C@H](CC(C)C)N[C@@H](c2ccccc2)C(F)(F)F)c(OC)c1 [Compound 80] |
| 3.16 to 31.6 nM | COc1ccc(NC[C@H](CCS(C)(=O)=O)NC(=O)[C@H](CC(C)C)N[C@@H](c2ccc(S(C)(=O)=O)cc2)C(F)(F)F)c(OC)c1 [Compound 82] |
| 3.16 to 31.6 nM | COc1ccc(NC[C@H](CCS(C)(=O)=O)NC(=O)[C@H](CC(C)C)N[C@@H](c2cccnc2)C(F)(F)F)c(OC)c1 [Compound 83] |
| 31.6 to 10000 nM | COc1ccc(NC[C@H](CCS(C)(=O)=O)NC(=O)[C@H](CC(C)C)N[C@@H](c2ccc(OC)nc2)C(F)(F)F)c(OC)c1 [Compound 84] |
| ≤ 3.16 nM | CC[C@@H](CNc1ccc(OCCCC(=O)OC)cc1OC)NC(=O)[C@H](CC(C)C)N[C@@H](c1ccccc1)C(F)(F)F [Compound 85] |
| ≤ 3.16 nM | CCOC(=O)CCCCOc1ccc(NC[C@H](CC)NC(=O)[C@H](CC(C)C)N[C@@H](c2ccccc2)C(F)(F)F)c(OC)c1 [Compound 86] |

— US20090291945A1, “CYSTEINE PROTEASE INHIBITORS” (Teijin Pharma Limited, priority 2008, published 2009)
